Source: patent US10537552B2, “Substituted 5-hydroxyoxindoles and their use as analgesics and fever reducers” (CARAFE DRUG INNOVATION, LLC, priority 2015, dated 2020)

What was measured:
[1] = tested on: acetic acid-induced writhing responses; test: acetic acid writhing test (abdominal irritant test), Example 10; format: in vivo, C57/B16 mice
Description: This example compares the antinociception (animal equivalent of analgesia) produced by the oral administration of 5-hydroxy-7-methyloxindole vs. acetaminophen. Initial studies were performed using 10% DMSO/Cremophor™ as the vehicle. To enable a comparison with other datasets, 5-hydroxy-7-methyloxindole was subsequently tested using 6% Tween 20® reagent as the vehicle.
Male C57/B16 mice (Taconic), 8 weeks of age, were used in this study. The mice were received at Drexel University at least one week prior to testing and housed in standard polycarbonate cages with filter tops. Experiments were done in accordance with the guidelines of the National Institutes of Health and with the guidelines of the Committee for Research and Ethical Issues of IASP and were approved by the Animal Care and Use Committee of Drexel University College of Medicine. Four to five animals were housed per cage and food and water were provided ad libitum. Prior to initiation of the study, the animals were examined to assure adequate health and suitability. Mice were maintained on a 12/12 light/dark cycle and room temperature was maintained between 20 and 23° C. with a relative humidity maintained between 30% and 70%.
Compounds were administered orally 10 mL/kg, with a 30 minute pretreatment time. All compounds were tested in naïve animals. […] Each compound was dissolved in DMSO as a stock solution and mixed with Cremophor™ (1:1 v/v) before testing. The mixed solutions were diluted 1:4 with sterile water (the final concentration of DMSO/Cremophor™ reagent was 10%) immediately before administration to maximize the amount of compound in solution and improve the uniformity of any compound substance remaining in suspension. It is possible that some of the drug was in suspension at the time of administration. Each compound was initially tested in 5 mice at a dose of 300 mg/kg in the writhing test to assess their ability to alleviate abdominal pain. Based on the results of the initial test, the dose-response relationship for each active compound was determined by measuring the level of analgesia produced by at least 3 escalating doses of the test compound. The measurement of inhibition of writhing for acetaminophen and 5-hydroxy-7-methyloxindole were repeated using 6% Tween® 20 reagent as the vehicle. In this case, both compounds were clearly in suspension when administered to the animals.
A modified version of the standard abdominal irritant test was used to assess analgesia. Mice were habituated for 1 h in a transparent test box (5×5×10 inches) before any injections. Vehicle or test compound was administered p.o. (per os) 30 min prior to an intraperitoneal (i.p.) injection of 0.6% acetic acid (10 mL/kg) and the number of writhing responses (stretching of the hind limbs accompanied by a contraction of the abdominal muscles) to the acetic acid injection were counted over the subsequent 30 min period. The mice from each cage were randomly assigned to the dosing groups and the mice from each group were injected in a random order.
The one-way ANOVA was used to determine significant difference from the vehicle control treated animal. Dose response data for 5-hydroxy-7-methyloxindole was fit by non-linear regression analysis to a logit model to provide an estimate of ED50.

opioid receptor = opioid receptor binding assay, non-selective, [3H]-naloxone; parameters: species or system rat
Description: The non-selective assay was performed according to the procedure described in Childers, European Journal of Pharmacology, 55:11-18, 1979, which is incorporated by reference. In summary, adult Male Sprague-Dawley rats were killed by decapitation and the brains rapidly removed and placed in ice-cold buffer. The cerebral cortex was dissected and homogenized in buffer and the homogenates were further centrifuged. The binding experiments were performed at 25° C. for 40 min. Reaction mixtures contained tissue suspension, unlabeled drug and [^3H]-naloxone (1 nM) radioligand.
(§1) An inhibition greater than about 50% represented significant effects of the test compound. An inhibition of about 25% to about 50% was indicative of weak to moderate effects. An inhibition less than about 25% are not considered significant and may be primarily attributable to variability of the signal around the control level.

COX2 (h) = target: T1, COX2 (h) (Homo sapiens, UniProt P35354); test: COX2 enzyme assay; format: biochemical
T1 construct: host or cells: Sf9 cells
T1 sequence (P35354 18-604): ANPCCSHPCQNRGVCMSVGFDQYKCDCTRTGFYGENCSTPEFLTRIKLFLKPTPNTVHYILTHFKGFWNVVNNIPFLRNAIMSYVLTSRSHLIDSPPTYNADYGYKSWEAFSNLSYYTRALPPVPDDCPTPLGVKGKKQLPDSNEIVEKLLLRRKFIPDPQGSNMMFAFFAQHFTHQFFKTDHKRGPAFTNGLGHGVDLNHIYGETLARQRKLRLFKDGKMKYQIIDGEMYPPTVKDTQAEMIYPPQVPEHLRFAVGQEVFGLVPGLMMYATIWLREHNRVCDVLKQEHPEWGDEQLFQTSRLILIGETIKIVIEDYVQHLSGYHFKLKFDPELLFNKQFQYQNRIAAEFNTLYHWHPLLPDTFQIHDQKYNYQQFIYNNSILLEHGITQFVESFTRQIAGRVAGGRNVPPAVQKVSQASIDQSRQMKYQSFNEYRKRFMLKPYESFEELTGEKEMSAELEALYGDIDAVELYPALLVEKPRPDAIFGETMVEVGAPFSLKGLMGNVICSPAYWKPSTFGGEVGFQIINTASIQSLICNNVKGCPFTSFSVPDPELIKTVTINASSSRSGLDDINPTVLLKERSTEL
Description: The assay was performed according to the procedure described in Glaser, European Journal of Pharmacology, 281:107-111, 1995, which is incorporated by reference. Recombinant enzymes were reconstituted in buffer. The enzyme preparations were preincubated with DMSO vehicle or compounds in DMSO for 5 min at 37° C. and the human recombinant enzyme expressed in Sf9 cells.
as §1

Cc1cc(O)cc2c1NC(=O)C2 [5-hydroxy-7-methyloxindole, 5-Hydroxy-7-methyloxindole]
inhibition of acetic acid-induced response (writhing) ([1]; C57/B16 mice, p.o. 30 min before i.p. 0.6% acetic acid, 10% DMSO/Cremophor vehicle, 30 to 300 mg/kg, FIG. 2, 3): robust and dose-related inhibition | inhibition of acetic acid-induced response (writhing) ([1]; C57/B16 mice, p.o., 6% Tween 20 vehicle (suspension), 100 and 300 mg/kg, FIG. 5, 6): the highest dose produced an effect comparable to that observed with the DMSO/Cremophor™ vehicle | ED50 ([1]; Mus musculus, po, C57/B16 mice, p.o., 10% DMSO/Cremophor vehicle, FIG. 4, read-out: ED50 (logit model fit of dose-response)): 76 mg/kg | oral antinociceptive (analgesic) effect compared with acetaminophen ([1]; mouse model, oral, summary statement): equal to, and was slightly more potent than, acetaminophen | binding to opioid receptor, in words (opioid receptor): binds minimally, if at all | Mean Inhibition (%) (opioid receptor; test concentration 1 × 10^−5 M, rat cerebral cortex, [3H]-naloxone 1 nM): −9.7% | binding to COX2 receptor, in words (COX2 (h)): binds minimally, if at all | inhibition at 10 µM (COX2 (h); test concentration 1 × 10^−5 M, human recombinant enzyme expressed in Sf9 cells): -6.8%
